Source: patent US20040180927A1, “Inhibitors of cysteine protease” (SmithKline Beecham Corporation, priority 1996, published 2004)

Target: T1, cathepsin K (Homo sapiens, UniProt P43235)
T1 sequence (P43235 115-329): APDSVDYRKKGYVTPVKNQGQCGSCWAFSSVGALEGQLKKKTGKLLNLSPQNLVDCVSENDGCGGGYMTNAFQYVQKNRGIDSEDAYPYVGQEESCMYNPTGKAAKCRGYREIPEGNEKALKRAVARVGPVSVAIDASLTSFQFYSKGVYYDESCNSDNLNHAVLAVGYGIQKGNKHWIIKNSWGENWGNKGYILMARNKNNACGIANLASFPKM
Assay: Determination of cathepsin K proteolytic catalytic activity; inhibition studies (progress curve method)
Format: biochemical
Settings: human recombinant enzyme, fluorogenic substrate Cbz-Phe-Arg-AMC, pH 5.5
Experimental: Determination of cathepsin K proteolytic catalytic activity
All assays for cathepsin K were carried out with human recombinant enzyme. Standard assay conditions for the determination of kinetic constants used a fluorogenic peptide substrate, typically Cbz-Phe-Arg-AMC, and were determined in 100 mM Na acetate at pH 5.5 containing 20 mM cysteine and 5 mM EDTA. Stock substrate solutions were prepared at concentrations of 10 or 20 mM in DMSO with 20 uM final substrate concentration in the assays. All assays contained 10% DMSO. […] All assays were conducted at ambient temperature. Product fluorescence (excitation at 360 nm; emission at 460 nm) was monitored with a Perceptive Biosystems Cytofluor II fluorescent plate reader. […]
Potential inhibitors were evaluated using the progress curve method. […] For those compounds whose progress curves were linear, apparent inhibition constants (Ki,app) were calculated according to equation 1 (Brandt et al., Biochemitsry, 1989, 28, 140): […]
[AMC]=νSSt+(ν0−νSS) [I−exp(−kobst)]/kobs (2) where [AMC] is the concentration of product formed over time t, ν0 is the initial reaction velocity and νSS is the final steady state rate. Values for kobs were then analyzed as a linear function of inhibitor concentration to generate an apparent second order rate constant (kobs/inhibitor concentration or kobs/[1]) describing the time-dependent inhibition. […]

Ki: > 10 µM
Structure (SMILES): CC(C)C[C@H](NS(=O)(=O)c1cccc2cccnc12)C(=O)NC1COCC1=O (mixture of isomers) [4-(R,S)-Amino-N-[(8-quinolinesulfonyl)-S-leucine]-3-tetrahydrofuran-3-one]
